One data set has as its target T1, hIDO2 (Homo sapiens, UniProt Q6ZQW0).
T1 construct: purchased Vinci-Biochem
T1 sequence (Q6ZQW0 1-407): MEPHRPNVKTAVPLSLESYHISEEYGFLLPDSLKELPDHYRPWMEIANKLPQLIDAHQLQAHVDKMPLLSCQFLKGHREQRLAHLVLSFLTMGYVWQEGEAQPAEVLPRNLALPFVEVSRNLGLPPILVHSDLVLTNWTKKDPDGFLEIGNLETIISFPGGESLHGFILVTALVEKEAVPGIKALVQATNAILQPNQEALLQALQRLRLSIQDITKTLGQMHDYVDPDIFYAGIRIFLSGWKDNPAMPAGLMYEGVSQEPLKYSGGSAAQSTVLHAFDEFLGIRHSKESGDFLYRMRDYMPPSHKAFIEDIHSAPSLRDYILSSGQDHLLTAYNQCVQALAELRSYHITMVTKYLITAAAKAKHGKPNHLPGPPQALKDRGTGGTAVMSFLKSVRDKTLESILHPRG
Kind of data set: hIDO2 inhibitory potency evaluation (fluorescence assay). The class given is biochemical. To be noted: for inhibition at 100 µM: 100 µM compound, n.a. = not active, read-out: IDO2 % of Inhibition @ 100 µM. As for the experimental part: (§1) Additionally, to determine IDO1 selectivity, all final compounds were assayed for their inhibitory potencies towards hIDO2 and hTDO. For this purpose, two new protocols were developed based on the published fluorescence assay for hIDO1 [25]. Sodium ascorbate, methylene blue, and bovine catalase were used in the same concentrations as for hIDO1. 50 mM phosphate buffers with pH values of 7.5 and 7.0 were used for hIDO2 and hTDO, respectively, as has been already mentioned before. First, the activities of hIDO2 and hTDO were determined at four different concentrations. […] Additionally, the effect of DMSO concentration on enzyme activity was investigated. […] The optimal hIDO2 and hTDO assay concentrations of the substrate L-Trp were determined to be 4 mM and 500 μM, respectively.
Activity of the compounds on hIDO2 was determined according to the previously reported fluorescence protocol for hIDO1 [25] and reported absorbance protocols for hIDO2 [30, 36] with several modifications. Recombinant hIDO2 was purchased from Vinci-Biochem (Vinci-Biochem, Srl, Vinci, Italy), bovine catalase was purchased from Sigma-Aldrich (Sigma-Aldrich, St. Louis, MO, USA). Prior to the measurement of activity for compounds, the enzyme activity was determined and optimal assay enzyme concentration was selected. The amounts of reagents needed to perform the assay were optimized. Briefly, the reagents needed were dissolved in 50 mM potassium phosphate buffer (pH 7.5, 0.01%, v/v Tween 20), the reaction was performed in black 384-well microplates. After the addition of 1 μL of 100 mM sodium ascorbate neutralized with an equimolar amount of 1M NaOH, 1 μL of 100 μM methylene blue, 1 μL of 1 mg/mL bovine catalase, 0.5 μL of DMSO (negative control) or solution of a compound in DMSO, 5 μL of […] hIDO2 and 1.5 μL of 26.7 mM L-Trp were added and the microplate was incubated for 60 min at 37 °C. The reaction was quenched with the addition of 10 μL of 400 mM piperidine solution in MilliQ water and the formation of the examined fluorophore began following incubation at 65 °C for 20 min. The production of NFK-derived fluorophore (λEX = 400 nm, λEM = 500 nm) was measured using a microplate reader (Synergy H4; BioTek Instruments, Inc., Winooski, VT, USA) after 60 min post-incubation at room temperature. In the preliminary testing compounds were tested at 100 μM with activities determined as residual activities—RA, which were calculated to% of inhibition, presented in Table 1 and Table 2. (% of inhibition = 100% − RA). All determinations were carried out in duplicates.

A further data set has as its target T2, hTDO (Homo sapiens, UniProt P48775).
T2 construct: purchased Vinci-Biochem
Put plainly: hTDO inhibitory potency evaluation (fluorescence assay). Particulars: for inhibition at 100 µM: 100 µM compound, n.a. = not active, read-out: TDO % of Inhibition @ 100 µM. It counts as biochemical. On the procedure:
as §1
The activity of the compounds on hTDO was determined according to the previously reported fluorescence protocol for hIDO1 [25] and reported absorbance protocols for hTDO [30] with several modifications. Recombinant hTDO was purchased from Vinci-Biochem (Vinci-Biochem, Vinci, Italy), bovine catalase was purchased from Sigma-Aldrich (Sigma-Aldrich, St. Louis, MO, USA). Prior to the measurement of activity for compounds, the enzyme activity was determined, and optimal assay enzyme concentration was selected. The amounts of reagents needed to perform the assay were optimized. Briefly, the reagents needed were dissolved in 50 mM potassium phosphate buffer (pH 7.0, 0.01%, v/v Tween 20), the reaction was performed in black 384-well microplates. After the addition of 1 μL of 100 mM sodium ascorbate neutralized with equimolar amount of 1 M NaOH, 1 μL of 100 μM methylene blue, 1 μL of 1 mg/mL bovine catalase, 0.5 μL of DMSO (negative control) or solution of a compound, 5 μL of 300 nM hTDO and 1.5 μL of 3.3 mM L-Trp were added and the microplate was incubated for 60 min at 37 °C. The reaction was quenched with the addition of 10 μL of 400 mM piperidine solution in MilliQ water and the formation of the examined fluorophore began following incubation at 65 °C for 20 min. The production of NFK-derived fluorophore (λEX = 400 nm, λEM = 500 nm) was measured using a microplate reader (Synergy H4; BioTek Instruments, Inc., Winooski, VT, USA) after 60 min post-incubation at room temperature. In the preliminary testing compounds were tested at 100 μM with activities determined as residual activities—RA, which were calculated to% of inhibition, presented in Table 1 and Table 2 (% of inhibition = 100% − RA). All determinations were carried out in duplicates.

For the next data set, the target named is IDO1 (Homo sapiens, UniProt P14902). Put plainly: hIDO1 inhibitory potency evaluation (fluorescence assay, NFK-derived fluorophore). The class given is biochemical. The arrangement: gene encoding human IDO1 residues 6-403 His-tagged at the N-terminus; His tag (N); made in house; host or cells: Escherichia coli NiCo21. To be noted: for inhibition at 100 µM: 100 µM compound, n.a. = not active, read-out: IDO1 % of Inhibition @ 100 µM; for IC50: recombinant hIDO1, mean ± SD of at least two independent determinations, read-out: IDO1 IC50.
IDO1, sequence (P14902 6-403): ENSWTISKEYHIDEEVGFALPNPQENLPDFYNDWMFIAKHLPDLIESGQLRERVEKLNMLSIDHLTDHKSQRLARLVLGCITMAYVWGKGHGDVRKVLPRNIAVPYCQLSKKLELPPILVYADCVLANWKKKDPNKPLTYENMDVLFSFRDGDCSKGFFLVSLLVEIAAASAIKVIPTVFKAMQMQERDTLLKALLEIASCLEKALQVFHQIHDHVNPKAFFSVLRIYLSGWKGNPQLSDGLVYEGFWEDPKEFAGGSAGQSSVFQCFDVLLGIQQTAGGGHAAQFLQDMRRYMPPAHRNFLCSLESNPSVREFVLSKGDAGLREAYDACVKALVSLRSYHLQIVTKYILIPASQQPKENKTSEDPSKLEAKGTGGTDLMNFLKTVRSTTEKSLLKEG

In the next data set the test system is Hep G2 cell line. Put plainly: Cytotoxicity, MTS cell proliferation assay. The class given is cell-based. Particulars: Hep G2 cells, 10 μM, 24 h. On the procedure: All active compounds were additionally evaluated on a cellular level, starting with the determination of cytotoxicity on Hep G2 cell line using the MTS assay (Figure 3), where inner salt of [3-(4,5-dimethylthiazol-2-yl)-5-(3-carboxymethoxyphenyl)-2-(4-sulfophenyl)-2H-tetrazolium is converted to formazan product, its quantity is directly proportional to the number of living cells. Since the majority of compounds were only partially soluble in a cell medium at concentrations above 100 μM, their effect on cell viability was measured at 50 μM, 10 μM, and 1 μM. […] Taken together, the results obtained from cellular tests reminded us of the necessity to consider the physicochemical properties of compounds even at the early stages of design.
Cytotoxicity of the compounds was determined on HepG2 cell line using the MTS cell proliferation assay (CellTiter 96 AQueous One Solution Cell Proliferation Assay, Promega, Madison, WI, USA). The cells were seeded in 96-well plates (3 × 10^4 cells/well) and maintained in Dulbecco’s Modified Eagle’s Medium, supplemented with 10% fetal bovine serum (both from Thermo Fisher Scientific, Waltham, MA, USA) and 100 µg/mL gentamicin (Sigma-Aldrich, St. Louis, MO, USA). Following overnight incubation in a humidified chamber at 37 °C and 5% CO2 cells were treated with the compounds of interest at final concentrations of 1 µM, 10 µM, 50 µM, 100 µM, 150 µM, and 200 µM. After 24h incubation under the same conditions, 100 µL of the medium from each well were collected and mixed with 10 µL of MTS solution. Following 3h incubation, the absorbance (λABS = 490 nm) was measured using a microplate reader (Synergy H4; BioTek Instruments, Inc., Winooski, VT, USA). The results are expressed as means of triplicates ± standard deviation of three independent experiments.

By inhibition is commonly meant the drop in the measured response relative to a control, in per cent. The melting point is the temperature, or range, at which the solid turns liquid. A word on the IC50: it is the concentration at which inhibition is half-maximal.

T2 sequence (P48775 whole entry): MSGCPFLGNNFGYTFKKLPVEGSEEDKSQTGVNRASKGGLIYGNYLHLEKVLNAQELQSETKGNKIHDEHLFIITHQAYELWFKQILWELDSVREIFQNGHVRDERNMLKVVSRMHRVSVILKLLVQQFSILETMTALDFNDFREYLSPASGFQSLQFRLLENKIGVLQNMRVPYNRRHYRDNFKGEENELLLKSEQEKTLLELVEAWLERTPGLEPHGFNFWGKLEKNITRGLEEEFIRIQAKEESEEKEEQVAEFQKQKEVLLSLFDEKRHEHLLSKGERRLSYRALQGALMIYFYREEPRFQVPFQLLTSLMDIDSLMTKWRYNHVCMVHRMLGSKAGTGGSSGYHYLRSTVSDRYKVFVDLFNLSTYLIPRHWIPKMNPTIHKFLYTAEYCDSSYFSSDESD

`O=C(Cn1cnc2onc(-c3ccc(F)cc3)c2c1=O)Nc1cccc([N+](=O)[O-])c1` [Compound 24] yielded a melting point of 232 to 235 °C. Moreover, the inhibition at 100 µM at hIDO2 was 39 ± 5%. Besides, on hTDO, the inhibition at 100 µM is 25 ± 8%. For the same molecule, the inhibition at 100 µM on IDO1 was found to be 30 ± 2%.

`O=C(Cn1cnc2onc(-c3ccc(F)cc3)c2c1=O)Nc1ccc([N+](=O)[O-])cc1` [Compound 25] yielded a melting point of 200 to 203 °C. Further, the inhibition at 100 µM at hIDO2 came to 28%. The inhibition at 100 µM at hTDO was found to be 24 ± 7%. Besides, at IDO1, the IC50 was 98 µM.

Consider `N#Cc1ccc(NC(=O)Cn2cnc3onc(-c4ccc(F)cc4)c3c2=O)cc1` [Compound 27], for which the melting point is over 250 °C. The inhibition at 100 µM on hTDO came out at 17 ± 2%. In addition, at IDO1, the “hIDO1 inhibition (in words)” value is “inactive” and the inhibition at 100 µM was determined as 11 ± 4%.

Turning to `O=C(Cn1cnc2onc(-c3ccc(F)cc3)c2c1=O)Nc1ccc(-c2ncco2)cc1` [Compound 29], the melting point lay in the range of 237 to 239 °C. Further, the inhibition at 100 µM at hTDO came to 29 ± 3%. Besides, on IDO1, the IC50 was 30 µM.

In turn, `COC(=O)c1ccc(NC(=O)Cn2cnc3onc(-c4ccccc4)c3c2=O)cc1` [Compound 39] yielded a melting point of 200 to 202 °C. Further, the inhibition at 100 µM on hIDO2 was found to be 11 ± 7%. In the data set on Hep G2 cell line, the “effect on cell viability” value is listed as “significantly impacted cell viability”. Also, at IDO1, the “hIDO1 inhibition (in words)” value is on record as “low micromolar range” and the IC50 was found to be 22 µM.

As for `O=C(Cn1cnc2onc(-c3ccc(F)c(F)c3)c2c1=O)Nc1ccc([N+](=O)[O-])cc1` [Compound 48], the inhibition at 100 µM on hTDO is 10 ± 6%. Further, the 50% inhibitory concentration (IC50) at IDO1 turned out to be 75 µM.

Molecule `O=C(Cn1cnc2onc(-c3ccc(F)c(Br)c3)c2c1=O)Nc1ccc([N+](=O)[O-])cc1` [Compound 49] had a melting point of 226 to 228 °C. In addition, the inhibition at 100 µM on hTDO turned out to be 10 ± 2%. In the data set on Hep G2 cell line, the “effect on cell viability” value was “significantly impacted cell viability”. Besides, at IDO1, the half-inhibitory concentration (IC50) came to 96 µM.

On to `NS(=O)(=O)NCCNc1nonc1C(=NO)Nc1ccc(F)c(Br)c1` [epacadostat, reference compound], for which the IC50 at hIDO2 (positive control, assay validation, read-out: IDO2 IC50) turned out to be 0.58 µM; at hTDO it was 9.62 µM.
